The subject of this experiment is DSS-induced colitis model. As to the kind of experiment: Efficacy in model of dextran sulfate sodium-induced colitis. The class given is in vivo, C57BL/6J mice. Here is the method: A colitis model was prepared by allowing 7-week-old male C57BL/6J mice to freely drink a 1.5% aqueous solution of dextran sulfate sodium (hereinafter, DSS) dissolved in pure water purified through a Milli-Q (registered trademark, Merck Millipore) filter (hereinafter, referred to as Milli-Q water). For the control group, only Milli-Q water was administered. Simultaneously with the start of administration of DSS in drinking water, feed prepared by mixing Compound A (0.01%, 0.03%) with powdered FR-2 was administered to the feed administered group. For the vehicle group with feeding, and the control group, to which no DSS was administered, only powdered FR-2 was administered. The day on which the administration of DSS in drinking water and the administration of the compound were started was designated as Day 1, and the administration was continued until Day 8.
Control group: Milli-Q water, FR-2 (N=10) Vehicle group: 1.5% DSS solution, FR-2 (N=10) Compound A 0.01% group: 1.5% DSS solution, FR-2 mixed with 0.01% Compound A (N=10) Compound A 0.03% group: 1.5% DSS solution, FR-2 mixed with 0.03% Compound A (N=10)
All animals were weighed in the morning from Day 1 to Day 8. On Day 8, the abdomen was opened under isoflurane anesthesia, blood was collected from the abdominal vein by an untreated syringe, the duodenum, large intestine, rectum, and anus were removed, and the length of the removed large intestine was measured with an electric caliper. The large intestine was cut open to observe the stool properties and score the degree of diarrhea.

[1] abbreviates: 0.03% Compound A in feed, Day 1 to Day 8, 1.5% DSS in drinking water, compared with negative control.

Structures are written as SMILES.

Regarding `Cc1nc(CC2CCN(c3ccc(-c4ccc(C[C@H](C)O)cc4)cc3)CC2)nc(C(=O)NCC(=O)O)c1O` [Compound A, [({5-hydroxy-2-[(1-{4′-[(2S)-2-hydroxypropyl]biphenyl-4-yl}piperidin-4-yl)methyl]-6-methylpyrimidin-4-yl}carbonyl)amino]acetic acid], under setting [1], the “Inhibitory effect on intestinal length shortening (intestinal tract length on Day 8)” value is given as “significant inhibitory effect on intestinal length shortening” and the “Inhibitory effect on weight loss (amount of change in body weight on Day 8)” value is “significant inhibitory effect on weight loss”. Also, the “Diarrhea score on Day 8 (stool properties)” value (compound-administered group (0.01%, 0.03% in feed), 1.5% DSS, score 0-3 per Table 1, compared with negative control) is “tended to have improved stool properties”. In addition, the “Effect on the clinical condition in DSS-induced colitis model” value (overall conclusion, mice, administration in feed Day 1 to Day 8) is given as “improving effect on the clinical condition”.
